{
  "source": "patent US20250032585A1",
  "about": "“Effective Doses of CNP Conjugates” (Ascendis Pharma Growth Disorders A/S, priority 2021, published 2025)",
  "origin": "cited, not measured here",
  "key": {"[1]": {"tested_on": "pediatric patients with achondroplasia"}, "[2]": {"details": "in vivo, sc"}, "[3]": {"tested_on": "NPR-B receptor", "details": "pediatric patients with achondroplasia; increase from pre-dose baseline"}},
  "data": [
    {"substance": "vosoritide", "values": [
      {"measurement": "treatment difference in the change from baseline in annual growth velocity (AGV) compared to placebo", "setting": "[1]; after 52 weeks of treatment", "result": 1.57, "unit": "cm/year"},
      {"measurement": "subjects with decreased blood pressure", "setting": "[1]; human, in vivo", "result": 13, "unit": "%"},
      {"measurement": "subjects with symptomatic episode of decreased blood pressure with vomiting and/or dizziness", "setting": "[1]; human, in vivo", "result": 3, "unit": "%"},
      {"measurement": "half-life", "setting": "[2]", "result": "21.0 to 27.9", "unit": "min"},
      {"measurement": "time of maximum urinary cGMP level post-dose", "setting": "[3]", "result": 2, "unit": "h"}
    ]}
  ]
}
